Target: T1, Trypanothione reductase (TR) (Leishmania donovani, UniProt P39050)
T1 construct: gene TPR; native enzyme in cell extracts of L. donovani axenic amastigotes
Experiment: DTNB-coupled colorimetric TR activity assay ([…] nm) in L. donovani cell extract; Lineweaver-Burk analysis
Assay type: biochemical

T1 sequence (P39050 whole entry): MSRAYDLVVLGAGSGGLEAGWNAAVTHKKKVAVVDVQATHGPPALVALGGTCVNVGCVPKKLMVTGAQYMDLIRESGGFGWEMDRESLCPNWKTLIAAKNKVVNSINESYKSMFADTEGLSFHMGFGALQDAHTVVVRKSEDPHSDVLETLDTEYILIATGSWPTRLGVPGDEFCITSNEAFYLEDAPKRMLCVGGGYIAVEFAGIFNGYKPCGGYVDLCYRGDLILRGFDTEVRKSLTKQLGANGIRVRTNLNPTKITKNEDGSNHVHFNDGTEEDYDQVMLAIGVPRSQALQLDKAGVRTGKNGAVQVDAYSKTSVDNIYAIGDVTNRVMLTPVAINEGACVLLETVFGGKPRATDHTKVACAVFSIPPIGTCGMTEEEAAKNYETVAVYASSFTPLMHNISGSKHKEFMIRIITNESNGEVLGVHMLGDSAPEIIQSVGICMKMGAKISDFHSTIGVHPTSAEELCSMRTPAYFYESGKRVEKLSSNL

## CSCC1CN(/N=C/c2ccc([N+](=O)[O-])o2)C(=O)O1 (stereo not shown) [NFT, nifuratel]
  Ki: 3.15 ± 0.5 µM

Reference: PMC9865052, “Miltefosine and Nifuratel Combination: A Promising Therapy for the Treatment of Leishmania donovani Visceral Leishmaniasis” (International Journal of Molecular Sciences, 2023)
